These results are taken from patent US11884671B2, “Purinone compounds and their use in treating cancer” (ASTRAZENECA AB, priority 2018, dated 2024).

Some results are limits rather than exact numbers.

In assay [1] the target is JAK1 (Homo sapiens (Human), UniProt P23458). Briefly: JAK1 enzyme assay (Z'-LYTE). It counts as biochemical. The conditions noted are these: 75 μM ATP, arithmetic mean of two or more experiments; for IC50: read-out: JAK1 enz pIC50 (converted).
For assay [2], the target named is AURKA (Aurora A) (Homo sapiens (Human), UniProt O14965). Briefly: Aurora-A enzyme assay (Z'-LYTE). It counts as biochemical. The conditions noted are these: 10 μM ATP, arithmetic mean of two or more experiments; for IC50: read-out: AurA enz pIC50 (converted).
Chain of AURKA (Aurora A) (O14965 whole entry): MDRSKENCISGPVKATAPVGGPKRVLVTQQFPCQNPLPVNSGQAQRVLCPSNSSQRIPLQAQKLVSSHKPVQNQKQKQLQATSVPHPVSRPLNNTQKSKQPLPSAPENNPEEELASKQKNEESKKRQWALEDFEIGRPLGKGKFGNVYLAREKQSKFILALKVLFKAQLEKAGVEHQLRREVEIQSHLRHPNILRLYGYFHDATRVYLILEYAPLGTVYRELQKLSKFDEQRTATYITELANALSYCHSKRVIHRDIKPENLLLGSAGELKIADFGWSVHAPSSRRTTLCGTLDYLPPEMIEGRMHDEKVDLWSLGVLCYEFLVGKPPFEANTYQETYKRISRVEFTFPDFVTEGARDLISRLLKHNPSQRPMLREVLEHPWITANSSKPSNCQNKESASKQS
Assay [3] addresses TTK (Homo sapiens (Human), UniProt P33981). Kind of assay: TTK enzyme assay (LanthaScreen Eu Kinase Binding). The conditions noted are these: arithmetic mean of two or more experiments; for IC50: read-out: TTK enz pIC50 (converted). A general note: TR-FRET usually uses a lanthanide donor and a delayed reading to cut background.

Chain of TTK (P33981 whole entry): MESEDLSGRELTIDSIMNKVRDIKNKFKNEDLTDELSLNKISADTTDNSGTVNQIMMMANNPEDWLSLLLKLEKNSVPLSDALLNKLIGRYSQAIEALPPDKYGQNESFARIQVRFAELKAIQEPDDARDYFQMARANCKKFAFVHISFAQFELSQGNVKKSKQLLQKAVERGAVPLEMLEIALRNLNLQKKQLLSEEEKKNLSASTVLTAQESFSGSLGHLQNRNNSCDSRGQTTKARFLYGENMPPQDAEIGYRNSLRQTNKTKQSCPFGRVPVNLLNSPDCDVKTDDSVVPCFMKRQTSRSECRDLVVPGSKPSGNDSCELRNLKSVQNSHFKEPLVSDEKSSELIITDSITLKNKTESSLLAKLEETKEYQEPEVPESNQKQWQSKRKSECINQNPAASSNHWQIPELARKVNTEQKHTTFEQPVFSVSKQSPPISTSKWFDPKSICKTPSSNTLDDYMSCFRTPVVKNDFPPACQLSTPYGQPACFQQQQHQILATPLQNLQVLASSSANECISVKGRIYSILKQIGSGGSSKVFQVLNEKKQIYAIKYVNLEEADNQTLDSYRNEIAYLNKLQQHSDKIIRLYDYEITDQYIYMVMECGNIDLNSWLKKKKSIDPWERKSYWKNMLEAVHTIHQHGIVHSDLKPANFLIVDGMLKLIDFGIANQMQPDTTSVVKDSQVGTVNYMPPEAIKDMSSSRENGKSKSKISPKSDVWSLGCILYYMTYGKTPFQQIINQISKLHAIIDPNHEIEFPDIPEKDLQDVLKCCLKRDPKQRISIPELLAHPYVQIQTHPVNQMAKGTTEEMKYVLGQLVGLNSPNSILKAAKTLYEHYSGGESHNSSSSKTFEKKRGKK
Chain of JAK1 (P23458 whole entry): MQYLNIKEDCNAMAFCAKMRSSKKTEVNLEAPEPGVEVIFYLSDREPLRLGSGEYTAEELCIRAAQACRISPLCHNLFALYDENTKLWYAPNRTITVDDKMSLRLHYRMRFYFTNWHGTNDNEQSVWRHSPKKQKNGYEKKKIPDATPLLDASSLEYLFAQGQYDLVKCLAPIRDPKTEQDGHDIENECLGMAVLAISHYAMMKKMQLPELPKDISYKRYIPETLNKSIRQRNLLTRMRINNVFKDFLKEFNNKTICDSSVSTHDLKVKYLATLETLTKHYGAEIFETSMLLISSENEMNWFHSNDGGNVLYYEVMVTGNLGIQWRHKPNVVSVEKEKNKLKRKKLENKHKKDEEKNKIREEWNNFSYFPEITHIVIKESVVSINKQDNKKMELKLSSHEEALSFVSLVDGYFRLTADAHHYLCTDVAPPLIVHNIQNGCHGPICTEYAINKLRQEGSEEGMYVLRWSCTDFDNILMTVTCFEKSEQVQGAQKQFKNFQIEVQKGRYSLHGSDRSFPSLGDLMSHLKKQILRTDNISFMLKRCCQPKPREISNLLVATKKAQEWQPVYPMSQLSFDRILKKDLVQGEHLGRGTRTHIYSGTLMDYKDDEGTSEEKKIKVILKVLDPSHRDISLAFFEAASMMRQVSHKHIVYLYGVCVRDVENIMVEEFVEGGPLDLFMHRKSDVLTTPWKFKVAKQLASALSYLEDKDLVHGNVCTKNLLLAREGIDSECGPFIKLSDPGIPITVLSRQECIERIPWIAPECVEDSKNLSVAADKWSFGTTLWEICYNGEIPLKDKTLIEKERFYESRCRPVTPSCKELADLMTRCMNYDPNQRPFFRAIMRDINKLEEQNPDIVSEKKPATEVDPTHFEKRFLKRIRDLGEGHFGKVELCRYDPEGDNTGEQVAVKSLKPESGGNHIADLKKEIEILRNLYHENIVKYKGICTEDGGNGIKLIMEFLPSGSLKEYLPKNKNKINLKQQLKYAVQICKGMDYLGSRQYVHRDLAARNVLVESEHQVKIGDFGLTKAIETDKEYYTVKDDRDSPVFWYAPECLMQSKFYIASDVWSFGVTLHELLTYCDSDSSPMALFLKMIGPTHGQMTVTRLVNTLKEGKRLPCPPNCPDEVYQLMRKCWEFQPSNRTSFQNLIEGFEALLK

For `Cc1cc2ncccc2cc1Nc1ncc2c(n1)n([C@H]1CC[C@@](C)(N)CC1)c(=O)n2C` [Example 39, 9-((1s,4s)-4-amino-4-methylcyclohexyl)-7-methyl-2-((7-methylquinolin-6-yl)amino)-7,9-dihydro-8H-purin-8-one], the figures for the IC50 in assay [1], in assay [2] and in assay [3] were more than 10 µM, more than 10 µM and 3.98 µM, respectively.

Consider `Cc1cc2ncccc2cc1Nc1ncc2c(n1)n([C@H]1CC[C@](C)(N)CC1)c(=O)n2C` [Example 40, 9-((1r,4r)-4-amino-4-methylcyclohexyl)-7-methyl-2-((7-methylquinolin-6-yl)amino)-7,9-dihydro-8H-purin-8-one], for which the results for the IC50 in assay [1], in assay [2] and in assay [3] were more than 10 µM, more than 10 µM and 1.58 µM, respectively.

With `Cc1cc2ncccc2cc1Nc1ncc2c(n1)n([C@@H]1CCN(C)C[C@@H]1F)c(=O)n2C` [Example 46, 9-((3S,4R)-3-fluoro-1-methylpiperidin-4-yl)-7-methyl-2-((7-methylquinolin-6-yl)amino)-7,9-dihydro-8H-purin-8-one], the “JAK1 enz pIC50” value in assay [1] is on record as less than 5. Besides, the “AurA enz pIC50” value in assay [2] is less than 5. In addition, in assay [3], the “TTK enz pIC50” value is reported as 5.4.

With `Cc1cc2ncccc2cc1Nc1ncc2c(n1)n(C1CCN(C3COC3)CC1)c(=O)n2C` [Example 47, 7-methyl-2-((7-methylquinolin-6-yl)amino)-9-(1-(oxetan-3-yl)piperidin-4-yl)-7,9-dihydro-8H-purin-8-one], the “JAK1 enz pIC50” value in assay [1] was less than 5. The “AurA enz pIC50” value in assay [2] was less than 5. Moreover, the “TTK enz pIC50” value in assay [3] was 5.8.

Turning to `Cc1cc2ncccc2cc1Nc1ncc2c(n1)n(C1CCN(CCO)CC1)c(=O)n2C` [Example 48, 9-(1-(2-hydroxyethyl)piperidin-4-yl)-7-methyl-2-((7-methylquinolin-6-yl)amino)-7,9-dihydro-8H-purin-8-one], the “JAK1 enz pIC50” value in assay [1] is less than 5. Besides, the “AurA enz pIC50” value in assay [2] is listed as less than 5. In addition, in assay [3], the “TTK enz pIC50” value turned out to be 5.9.

With `COCCN1CCC(n2c(=O)n(C)c3cnc(Nc4cc5cccnc5cc4C)nc32)CC1` [Example 49, 9-(1-(2-methoxyethyl)piperidin-4-yl)-7-methyl-2-((7-methylquinolin-6-yl)amino)-7,9-dihydro-8H-purin-8-one], in assay [1], the “JAK1 enz pIC50” value is listed as less than 5. Further, the “AurA enz pIC50” value in assay [2] is less than 5. For the same compound, in assay [3], the “TTK enz pIC50” value was found to be 5.7.

As for `CCN1CCC(n2c(=O)n(C)c3cnc(Nc4cc5cccnc5cc4C)nc32)CC1` [Example 50, 9-(1-ethylpiperidin-4-yl)-7-methyl-2-((7-methylquinolin-6-yl)amino)-7,9-dihydro-8H-purin-8-one], the “JAK1 enz pIC50” value in assay [1] was less than 5. Further, the “AurA enz pIC50” value in assay [2] is reported as less than 5. For the same compound, the “TTK enz pIC50” value in assay [3] worked out at 5.2.

Regarding `CC(=O)N1CCC(n2c(=O)n(C)c3cnc(Nc4cc5cccnc5cc4C)nc32)CC1` [Example 51, 9-(1-acetylpiperidin-4-yl)-7-methyl-2-((7-methylquinolin-6-yl)amino)-7,9-dihydro-8H-purin-8-one], the “JAK1 enz pIC50” value in assay [1] is listed as less than 5. Further, in assay [2], the “AurA enz pIC50” value is recorded as less than 5. Further, the “TTK enz pIC50” value in assay [3] worked out at 6.4.
